Data taken from US10105365B2, “Solid antiviral dosage forms” (AbbVie Inc., priority 2014, dated 2018).

What was measured:
[1] = Human pharmacokinetic study, Example 5 Arm II (multiple dose, crossover); format: in vivo; conditions: Example 5 Arm II; for β, geometric mean / half-life / AUC / concentration at 24 h / Cmax / Tmax: multiple dose 14 days, non-fasting, N = 63; for half-life / AUC / concentration at 24 h / Cmax / Tmax: both sexes, human, blood, oral; for AUC: read-out: AUC24, geometric mean; for concentration at 24 h: read-out: C24, geometric mean; for Cmax: read-out: Cmax, geometric mean; for Tmax: read-out: Tmax, first value (geometric mean)
Summary of the method: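 Multiple-dose two-period randomized crossover in 66 healthy adults: oral dosing for 14 days per period, ≥10-day separation, taken with ~240 mL water about 30 min after a standardized breakfast. Serial blood samples for pharmacokinetics were collected 72 hours after dosing in each period.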

[2] = Sink Conditions dissolution testing of Formulation C5-12; format: physicochemical; conditions: N = 6
Procedure: The release profiles of Formulation C5-12 of Example 1 were evaluated in a Sink Conditions dissolution study. The study was conducted in 900 mL of dissolution medium using a standard USP dissolution Apparatus 2 (paddle) operating at 100 RPM at 37±0.5° C. The dissolution medium was a 0.05 M sodium phosphate buffer pH 6.8 with 15 mM cTAB as a surfactant.

[3] = Solubility (general statement); format: physicochemical
[4] = Human pharmacokinetic study, Example 4 Arm III (14-day multiple dose, steady state); format: in vivo
[5] = Human pharmacokinetic study, Example 4 Arm II (single dose, crossover); format: in vivo; conditions: both sexes, human, oral, Example 4 Arm II, single dose, non-fasting, N = 13; for half-life / AUC(0-t) / AUC(0-inf) / Tmax: blood; for AUC(0-t): read-out: AUCt, geometric mean; for AUC(0-inf): read-out: AUC∞, geometric mean; for Tmax: read-out: Tmax; for concentration at 24 h / Cmax: in vivo; for concentration at 24 h: read-out: C24, geometric mean; for Cmax: read-out: Cmax, geometric mean
Summary of the method: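 Healthy adult men and women (N=30 across Arms I and II) randomised to crossover regimen sequences; single oral dose with ~240 mL water ~30 min after a standardised breakfast; one regimen given an evening dose after a snack.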

[6] = Permeability (general statement); format: in vitro ADME; conditions: free acid of Compound 4; gastrointestinal tract
[7] = Human pharmacokinetic study, Example 5 Arm I (single dose, replicated crossover); format: in vivo; conditions: both sexes, human, oral, single dose, non-fasting; for half-life / AUC(0-t) / AUC(0-inf) / Tmax: blood; for Cmax: in vivo
Summary of the method: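 Single-dose, randomized, four-period, two-sequence replicated crossover in 88 healthy adults, periods separated by at least 10 days. Oral dosing in the morning with about 240 mL water, about 30 min after starting a standardized breakfast. Serial blood samples collected over 72 h after each dose.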

[8] = Regimen B (reference regimen): two Triple Tablets + one Single Tablet morning, one Single Tablet evening
[9] = 3 film-coated Formulation C5-12 tablets daily, Regimen A (C5-12): three film-coated Formulation C5-12 tablets daily
[10] = 4 hours, pH 6.8 buffer, 15 mM cTAB
[11] = 6 hours, pH 6.8 buffer, 15 mM cTAB
[12] = 8 hours, pH 6.8 buffer, 15 mM cTAB
[13] = 12 hours, pH 6.8 buffer, 15 mM cTAB
[14] = 16 hours, pH 6.8 buffer, 15 mM cTAB
[15] = 24 hours, pH 6.8 buffer, 15 mM cTAB
[16] = 30 hours, pH 6.8 buffer, 15 mM cTAB
[17] = Formulation C5-12, Day 14 versus Day 1
[18] = human, in vivo, oral, 3 Formulation C5-12 tablets daily, three Formulation C5-12 tablets daily for 14 days, non-fasting, Day 14, N = 14
[19] = three Formulation C5-12 tablets daily for 14 days, non-fasting, Day 14, N = 14
[20] = 3 Formulation C5-12 tablets, Regimen E (C5-12): three Formulation C5-12 tablets in the morning
[21] = Regimen A (reference regimen): two Triple Tablets + one Single Tablet morning, one Single Tablet evening

SMILES: COc1c(-c2ccc3cc(NS(C)(=O)=O)ccc3c2)cc(-n2ccc(=O)[nH]c2=O)cc1C(C)(C)C [Compound 4, N-(6-(3-tert-butyl-5-(2,4-dioxo-3,4-dihydropyrimidin-1(2H)-yl)-2-methoxyphenyl)naphthalen-2-yl)methanesulfonamide]
- β, geometric mean ([1]; Regimen A (C5-12): three film-coated Formulation C5-12 tablets daily): 0.104 h⁻¹
- β, geometric mean [1, 8]: 0.122 h⁻¹
- Exposures (Cmax,ss and AUC24,ss) versus the reference regimen ([1]; Formulation C5-12, point estimate and 90% confidence interval for the GMR within 0.80-1.25): bioequivalent
- C24,ss lower than C24,ss (Ctrough) for the reference regimen ([1]; Formulation C5-12 relative to the reference regimen): 29%
- half-life [1, 9]: 6.2 h
- AUC [1, 9]: 8810 ng·h/mL
- concentration at 24 h [1, 9]: 116 ng/mL
- Cmax [1, 9]: 799 ng/mL
- Tmax [1, 9]: 8 h
- half-life [1, 8]: 5.5 h
- AUC [1, 8]: 9770 ng·h/mL
- concentration at 24 h [1, 8]: 162 ng/mL
- Cmax [1, 8]: 879 ng/mL
- Tmax [1, 8]: 4 h
- % Released ([2]; 1 hour, 900 mL 0.05 M sodium phosphate buffer pH 6.8, 15 mM cTAB, USP Apparatus 2, 100 RPM, 37 °C): 1%
- mg Released ([2]; 1 hour, pH 6.8 buffer, 15 mM cTAB): 2.3 mg
- % Released [2, 10]: 11%
- mg Released [2, 10]: 25.7 mg
- % Released [2, 11]: 18%
- mg Released [2, 11]: 42.0 mg
- % Released [2, 12]: 25%
- mg Released [2, 12]: 58.3 mg
- % Released [2, 13]: 39%
- mg Released [2, 13]: 91.0 mg
- % Released [2, 14]: 51%
- mg Released [2, 14]: 119.0 mg
- % Released [2, 15]: 70%
- mg Released [2, 15]: 163.3 mg
- % Released [2, 16]: 81%
- mg Released [2, 16]: 189.0 mg
- Solubility ([3]; aqueous): low solubility
- Solubility in the gastrointestinal tract ([3]; free acid of Compound 4): poor solubility
- AUC24, RATIO [4, 17]: 0.88
- C24, RATIO [4, 17]: 0.63
- Cmax, RATIO [4, 17]: 0.95
- Tmax ([4]; human, in vivo, oral, 3 Formulation C5-12 tablets daily, three Formulation C5-12 tablets daily for 14 days, non-fasting, Day 1, N = 14): 9 h
- AUC ([4]; human, in vivo, oral, 3 Formulation C5-12 tablets daily, three Formulation C5-12 tablets daily for 14 days, non-fasting, Day 1, N = 14, read-out: AUC24, geometric mean): 13600 ng·h/mL
- concentration at 24 h ([4]; human, in vivo, oral, 3 Formulation C5-12 tablets daily, three Formulation C5-12 tablets daily for 14 days, non-fasting, Day 1, N = 14, read-out: C24, geometric mean): 272 ng/mL
- Cmax ([4]; human, in vivo, oral, 3 Formulation C5-12 tablets daily, three Formulation C5-12 tablets daily for 14 days, non-fasting, Day 1, N = 14, read-out: Cmax, geometric mean): 1320 ng/mL
- Tmax [4, 18]: 9.4 h
- half-life [4, 18]: 5.9 h
- AUC ([4]; human, in vivo, oral, 3 Formulation C5-12 tablets daily, three Formulation C5-12 tablets daily for 14 days, non-fasting, Day 14, N = 14, read-out: AUC24, geometric mean): 12000 ng·h/mL
- concentration at 24 h ([4]; human, in vivo, oral, 3 Formulation C5-12 tablets daily, three Formulation C5-12 tablets daily for 14 days, non-fasting, Day 14, N = 14, read-out: C24, geometric mean): 172 ng/mL
- Cmax ([4]; human, in vivo, oral, 3 Formulation C5-12 tablets daily, three Formulation C5-12 tablets daily for 14 days, non-fasting, Day 14, N = 14, read-out: Cmax, geometric mean): 1250 ng/mL
- C24, arithmetic mean, % CV [4, 19]: (210,61) ng/mL
- β [4, 19]: 0.117 h⁻¹
- half-life [5, 20]: 6.4 h
- AUC(0-t) [5, 20]: 18400 ng·h/mL
- AUC(0-inf) [5, 20]: 18600 ng·h/mL
- Tmax [5, 20]: 9.7 h
- half-life [5, 21]: 5.5 h
- AUC(0-t) [5, 21]: 18200 ng·h/mL
- AUC(0-inf) [5, 21]: 18400 ng·h/mL
- Tmax [5, 21]: 3.1 h
- concentration at 24 h [5, 20]: 290 ng/mL
- Cmax [5, 20]: 1350 ng/mL
- concentration at 24 h [5, 21]: 361 ng/mL
- Cmax [5, 21]: 1240 ng/mL
- Permeability [6]: good permeability
- half-life ([7]; 3 film-coated Formulation C5-12 tablets, Regimen A (C5-12): three film-coated Formulation C5-12 tablets, N = 172): 6.91 h
- AUC(0-t) ([7]; 3 film-coated Formulation C5-12 tablets, Regimen A (C5-12): three film-coated Formulation C5-12 tablets, N = 172, read-out: AUCt, geometric mean): 12700 ng·h/mL
- AUC(0-inf) ([7]; 3 film-coated Formulation C5-12 tablets, Regimen A (C5-12): three film-coated Formulation C5-12 tablets, N = 172, read-out: AUC∞, geometric mean): 12900 ng·h/mL
- Tmax ([7]; 3 film-coated Formulation C5-12 tablets, Regimen A (C5-12): three film-coated Formulation C5-12 tablets, N = 172, read-out: Tmax, first value (geometric mean)): 8 h
- half-life ([7]; Regimen B (reference regimen): two Triple Tablets + one Single Tablet morning, one Single Tablet evening, N = 171): 5.8 h
- AUC(0-t) ([7]; Regimen B (reference regimen): two Triple Tablets + one Single Tablet morning, one Single Tablet evening, N = 171, read-out: AUCt, geometric mean): 14800 ng·h/mL
- AUC(0-inf) ([7]; Regimen B (reference regimen): two Triple Tablets + one Single Tablet morning, one Single Tablet evening, N = 171, read-out: AUC∞, geometric mean): 14900 ng·h/mL
- Tmax ([7]; Regimen B (reference regimen): two Triple Tablets + one Single Tablet morning, one Single Tablet evening, N = 171, read-out: Tmax, first value (geometric mean)): 4 h
- Cmax ([7]; 3 film-coated Formulation C5-12 tablets, Regimen A (C5-12): three film-coated Formulation C5-12 tablets, N = 172, read-out: Cmax, geometric mean): 1060 ng/mL
- Cmax ([7]; Regimen B (reference regimen): two Triple Tablets + one Single Tablet morning, one Single Tablet evening, N = 171, read-out: Cmax, geometric mean): 1030 ng/mL
